These are literature values, as cited in patent US20250099385A1, “Extended Release Boswellic Acid and Manufacturing Thereof” (Lonza Greenwood LLC, priority 2022, published 2025).

Entries after “also recorded” stand apart in the source; their conditions may differ.

Test in data set [1]: not given
The source holds these as a separate data set.

In the next data set the target is T1, 5-lipoxygenase (Homo sapiens, UniProt P09917).
T1 sequence (P09917 1-674): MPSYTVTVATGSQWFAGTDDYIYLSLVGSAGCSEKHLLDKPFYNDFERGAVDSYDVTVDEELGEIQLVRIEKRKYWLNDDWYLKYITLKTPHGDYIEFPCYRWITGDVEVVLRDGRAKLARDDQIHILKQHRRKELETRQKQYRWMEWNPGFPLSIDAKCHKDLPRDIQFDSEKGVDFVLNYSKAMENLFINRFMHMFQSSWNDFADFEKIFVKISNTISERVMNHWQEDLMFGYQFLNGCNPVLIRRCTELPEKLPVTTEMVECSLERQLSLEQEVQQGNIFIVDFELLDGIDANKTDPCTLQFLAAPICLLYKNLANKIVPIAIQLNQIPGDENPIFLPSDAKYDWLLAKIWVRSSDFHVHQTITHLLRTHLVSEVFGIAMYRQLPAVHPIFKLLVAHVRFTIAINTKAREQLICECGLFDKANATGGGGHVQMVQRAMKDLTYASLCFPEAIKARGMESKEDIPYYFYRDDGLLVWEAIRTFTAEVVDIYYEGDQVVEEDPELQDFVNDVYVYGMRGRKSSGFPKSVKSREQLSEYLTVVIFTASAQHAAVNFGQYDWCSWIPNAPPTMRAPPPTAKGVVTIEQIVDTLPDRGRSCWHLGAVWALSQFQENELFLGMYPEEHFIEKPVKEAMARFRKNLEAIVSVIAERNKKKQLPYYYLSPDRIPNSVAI

With “3-O-acetyl-11-keto-.beta.-boswellic acid [AKBA]”, the “time at which AKBA levels in the blood peak” value (after oral consumption) is about 3 h. The “AKBA levels in the blood beyond 10 hours” value (beyond 10 hours from oral consumption) was “nearly zero concentration; also recorded: almost zero concentrations”. Moreover, the bioavailability result (in vivo) was “poorly bioavailable”. In addition, in data set [1], the water solubility result is on record as “highly water-insoluble”. Further, the “5-lipoxygenase inhibition, rank among the boswellic acids” value on 5-lipoxygenase is “most potent inhibitor”.
